T1: S-methyl-5'-thioadenosine phosphorylase (Homo sapiens, UniProt Q13126)
T1 sequence (Q13126 whole entry): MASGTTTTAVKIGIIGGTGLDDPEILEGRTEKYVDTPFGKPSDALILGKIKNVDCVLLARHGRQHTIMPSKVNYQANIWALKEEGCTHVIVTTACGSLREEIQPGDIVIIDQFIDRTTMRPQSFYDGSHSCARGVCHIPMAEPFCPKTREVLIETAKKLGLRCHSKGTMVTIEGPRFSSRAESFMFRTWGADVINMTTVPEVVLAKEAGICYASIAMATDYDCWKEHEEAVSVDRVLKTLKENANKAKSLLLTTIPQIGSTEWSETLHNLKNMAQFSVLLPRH


Tests used:
[1] = biological target: T1, S-methyl-5'-thioadenosine phosphorylase; test: Inhibition of human MTAP as initial dissociation constant
[2] = biological target: T1, S-methyl-5'-thioadenosine phosphorylase; test: Inhibition of human MTAP as equilibrium dissociation constant
[3] = biological target: T1, S-methyl-5'-thioadenosine phosphorylase; test: Inhibition of human MTAP as equilibrium dissociation constant; ND=no slow-onset phase
[4] = substrate: CSC[C@H]1O[C@@H](n2cnc3c(N)ncnc32)[C@H](O)[C@@H]1O; test: Km for human MTAP

Row | Ki [1] | Ki [2] | Ki [3] | Molecule | Km [4]
1 | 900 pM | 260 pM | – | CC(C)SCC1CN(Cc2c[nH]c3c2NC=NC3N)CC1O (stereo not drawn) | –
2 | 280 pM | 110 pM | – | CCCCSCC1CN(Cc2c[nH]c3c2N=CNC3N)CC1O (stereo not drawn) | –
3 | 360 pM | 10 pM | – | NC1N=CNc2c(CN3CC(O)C(CSc4ccc(Cl)cc4)C3)c[nH]c21 (stereo not drawn) | –
4 | 760 pM | 370 pM | – | NC1NC=Nc2c(CN3CC(O)C(CSC4CCCCC4)C3)c[nH]c21 (stereo not drawn) | –
5 | 810 pM | 160 pM | – | NC1NC=Nc2c(CN3CC(O)C(CSc4ccc(F)cc4)C3)c[nH]c21 (stereo not drawn) | –
6 | 650 pM | 34 pM | – | CCSCC1CN(Cc2c[nH]c3c2N=CNC3N)CC1O (stereo not drawn) | –
7 | 1300 pM | 120 pM | – | CCCSCC1CN(Cc2c[nH]c3c2NC=NC3N)CC1O (stereo not drawn) | –
8 | 22000 pM | 3000 pM | – | CCCC1CN(Cc2c[nH]c3c2N=CNC3N)CC1O (stereo not drawn) | –
9 | 2000 pM | 270 pM | – | NC1NC=Nc2c(CN3CC(O)C(CSc4cccc(Cl)c4)C3)c[nH]c21 (stereo not drawn) | –
10 | 85000 pM | 42000 pM | – | NC1N=CNc2c(CN3CC(O)C(COCc4ccccc4)C3)c[nH]c21 (stereo not drawn) | –
11 | 1400 pM | 700 pM | – | Nc1[nH]cnc2c(CN3CC(O)C(CSCc4ccccc4)C3)cnc1-2 (stereo not drawn) | –
12 | 2000 pM | 160 pM | – | NC1N=CNc2c(CN3CC(O)C(CSc4ccncc4)C3)c[nH]c21 (stereo not drawn) | –
13 | 14000 pM | 8000 pM | – | COCC1CN(Cc2c[nH]c3c2N=CNC3N)CC1O (stereo not drawn) | –
14 | 55000 pM | – | No slow-onset phase observed | Nc1ncnc2c(CN3CC(O)C(CSCc4ccccc4)C3)n[nH]c12 (stereo not drawn) | –
15 | 1500 pM | 170 pM | – | NC1NC=Nc2c(CN3CC(O)C(CSc4ccccc4)C3)c[nH]c21 (stereo not drawn) | –
16 | 1700 pM | 90 pM | – | CSCC1CN(Cc2c[nH]c3c(N)ncnc23)CC1O (stereo not drawn) | –
17 | – | – | – | S-methyl-5'-thioadenosine phosphorylase (Homo sapiens), Q13126 (protein) MASGTTTTAVKIGIIGGTGLDDPEILEGRTEKYVDTPFGKPSDALILGKIKNVDCVLLARHGRQHTIMPSKVNYQANIWALKEEGCTHVIVTTACGSLREEIQPGDIVIIDQFIDRTTMRPQSFYDGSHSCARGVCHIPMAEPFCPKTREVLIETAKKLGLRCHSKGTMVTIEGPRFSSRAESFMFRTWGADVINMTTVPEVVLAKEAGICYASIAMATDYDCWKEHEEAVSVDRVLKTLKENANKAKSLLLTTIPQIGSTEWSETLHNLKNMAQFSVLLPRH | 5 µM
